Patent US20090203050A1 (The Regents of the University of California, priority 2005, published 2009)
Entries after “also recorded” stand apart in the source; their conditions may differ.

B1: TRAIL: tumor necrosis factor (TNF)-related apoptosis-inducing ligand (protein, UniProt P50591 1-281, looked up)
Tumor necrosis factor ligand …: MAMMEVQGGPSLGQTCVLIVIFTVLLQSLCVAVTYVYFTNELKQMQDKYSKSGIACFLKEDDSYWDPNDEESMNSPCWQVKWQLRQLVRKMILRTSEETISTVQEKQQNISPLVRERGPQRVAAHITGTRGRSNTLSSPNSKNEKALGRKINSWESSRSGHSFLSNLHLRNGELVIHEKGFYYIYSQTYFRFQEEIKENTKNDKQMVQYIYKYTSYPDPILLMKSARNSCWSKDAEYGLYSIYQGGIFELKENDRIFVSVTNEHLIDMDHEASFFGAFLVG

Key:
Ramos-RR1 = experiment: DNA fragmentation (PI) apoptosis assay, Ramos-RR1; conditions: for resistance of clone compared with wt cells / resistance of clone compared with wt cells, value in parentheses / apoptosis, drug alone: 18 h; for apoptosis, drug after DHMEQ pre-treatment: DHMEQ 20 μg/ml 2 h, then highest drug concentration 18 h; for apoptosis, drug alone: highest drug concentration
Method: (§1) Percentage of apoptotic cells was determined by evaluation of propidium iodide (PI) stained preparations of cells using an EpicXL flow-cytometer. Cellular debris was excluded from analysis by raising the forward scatter threshold, and DNA content of the intact nuclei was recorded on a logarithmic scale (Nicoletti, I. et al., J. Immunol. Methods, 139:271-9 (1991)). Percent apoptosis is represented as percentage of hypodiploid cells accumulated at sub-G0 phase of cell cycle.
(§2) Cells were left either untreated or pre-treated with DHMEQ (36), bortezomib (Goy, A. et al., Clin. Lymphoma, 4:230-7 (2004)) and PD098059 (Alessi, D. et al., J. Biol. Chem., 270:27489-94 (1995)). Escalating concentrations of various drugs were then added and the percentage of apoptosis was measured.

Ramos wt cells = experiment: DNA fragmentation (PI) apoptosis assay, Ramos wt; assay type: cell-based, human
Daudi-RR1 = experiment: DNA fragmentation (PI) apoptosis assay, Daudi-RR1; conditions: for resistance of clone compared with wt cells / resistance of clone compared with wt cells, value in parentheses / apoptosis, drug alone: 18 h; for apoptosis, drug after DHMEQ pre-treatment: DHMEQ 20 μg/ml 2 h, then highest drug concentration 18 h; for apoptosis, drug alone: highest drug concentration
Method: as §1, §2

Daudi wt cells = experiment: DNA fragmentation (PI) apoptosis assay, Daudi wt; assay type: cell-based, human
RR clones = experiment: DNA fragmentation apoptosis assay, RR clones (pooled statements); assay type: cell-based, human; conditions: drugs e.g. Paclitaxel, Vincristine, VP-16, CDDP, Adriamycin
Method: Thus, we examined if such sensitizing agents can reverse the resistance in the RR clones.
as §1, §2

[1] = system: 2F7, Ramos and Daudi wild type and RR clones; experiment: TRAIL-mediated apoptosis in B-NHL cell lines and RR clones (DNA fragmentation); assay type: cell-based, human; conditions: for sensitization to TRAIL-induced apoptosis: inhibitor pretreatment 2 h, then TRAIL 18 h, rituximab-sensitive and -resistant cells
Text: Patients with B-NHL respond initially to conventional chemotherapy and/or to immunotherapy with rituximab (alone or in combination with chemotherapy). However, patients develop resistance to these modalities and novel approaches are needed. TRAIL is a cytotoxic molecule that exerts selective anti-tumor cytotoxic activity with minimal toxicity to normal tissues. Further, TRAIL or agonist monoclonal antibody (mAb) to TRAIL receptors, DR4 and DR5, are currently being tested clinically. The present study investigated the sensitivity of B-NHL cell lines to TRAIL-mediated apoptosis using the AIDS-related NHL (ARL) B-cell line, 2F7, and the B-NHL cell lines, Ramos and Daudi. Also, to recapitulate various aspects of acquired rituximab-resistance, we have generated rituximab-resistant (RR) clones from the parental wild type (wt) cells. […] We then examined means to reverse […] resistance. We and others have reported that inhibition of NFκB activity can sensitize TRAIL-resistant tumor cells to TRAIL-induced apoptosis. […] Both the rituximab-sensitive and rituximab-resistant tumor cells were sensitized by these inhibitors, though higher concentrations were required for sensitization of the RR clones. […] Based on the findings, patients with resistant B-NHL can be treated with combination of TRAIL/anti-DR4 or DR5 mAb and NFκB inhibitors. Alternatively, these patients can be treated with agents that up-regulate TRAIL expression on host effectors (e.g., T cells, NK cells) in combination with NFκB inhibitors.

2F7RR1 clone = experiment: Chemotherapeutic drug-induced apoptosis in 2F7RR1; assay type: cell-based
Text: (§3) Accordingly, we examined whether inhibition of Bcl-2 in 2F7RR1 can reverse chemoresistance. Since Bcl-2 is under the transcriptional regulation of NFκB, we examined the effect of the NF-κB inhibitors Bortezomib and DHMEQ (Kikuchi, et al., Cancer Research, 63:107 (2003)).
(§4) The mechanism by which B-NHL patients resist treatment is not known. […] We examined the effect of various chemical inhibitors of this signaling pathway on chemosensitization.

[2] = system: p38MAPK/NF-κB/YY1/STAT3 signaling pathways, Bcl-2; experiment: Molecular analysis of signaling in 2F7RR1; assay type: cell-based; conditions: 2F7-RR1
Text: as §3, §4

Ramos and Daudi = conditions: ERK1/2 pathway inhibitors; cited from earlier work
NF-κB and AP-1 DBA = experiment: EMSA in RR clones; assay type: cell-based, human
Method: FIG. 8. […] A. Total cell lysates (40 μg) were subjected to western blot analysis using phospho-specific Abs for various components of the NF-κB and ERK1/2 pathways. B. The kinase activity of the IKK complex using IκB-α peptide (aa 1-50 including S^32/36) and ERK1/2 using MAPK kinase substrates 4 (aa 172-192) using immune-complex kinase assay. C. […] 10 μg of nuclear lysates were subjected to EMSA (n=2) (19, 20).
The DBAs were evaluated using biotin-labeled oligonucleotide AP-1 (5′-[…]-3′) (Lee, W et al., Cell, 49:741-52 (1987)) and NF-κB (5′-[…] […]-3′) probes (Harada, H. et al., Mol. Cell Biol., 14:1500-9 (1994)) using EMSA kit (Panomics, Inc., Redwood City, Calif.) according to manufacturer's instructions. 10 μg of nuclear extracts were subjected to […] 5% PAGE and developed (Jazirehi, A. et al., Cancer Research, 64:7117-26 (2004); Jazirehi, A. et al., Cancer Research, 65:264-76 (2005)).
Next, alterations in the DBA of NF-κB and AP-1 in the clones were examined.

[3] = Ramos-RR1, 2MAM-A3 35 μg/ml 7 h, paclitaxel 10 nM 18 h
[4] = wt Ramos, 2MAM-A3 15 μg/ml 7 h, paclitaxel 10 nM 18 h

Row | Molecule | sensitization of RR clones to various chemotherapeutic drugs (RR clones) | resistance of clone compared with wt cells (Ramos-RR1; Ramos-RR1) [folds] | resistance of clone compared with wt cells, value in parentheses (Ramos-RR1; Ramos-RR1) [%] | apoptosis, drug after DHMEQ pre-treatment (Ramos-RR1; Ramos-RR1) [%] | apoptosis, drug alone (Ramos-RR1; Ramos-RR1) [%] | resistance of clone compared with wt cells (Daudi-RR1; Daudi-RR1) [folds] | resistance of clone compared with wt cells, value in parentheses (Daudi-RR1; Daudi-RR1) [%] | apoptosis, drug after DHMEQ pre-treatment (Daudi-RR1; Daudi-RR1) [%] | apoptosis, drug alone (Daudi-RR1; Daudi-RR1) [%] | further results
1 | CCCC[C@H]1C(=O)O[C@H](C)[C@H](NC(=O)c2cccc(NC=O)c2OC)C(=O)O[C@@H](C)[C@@H]1OC(=O)CC(C)C [2MAM-A3, 2-methoxyantimycin-A3] | sensitized | – | – | – | – | – | – | – | – | apoptosis, paclitaxel after 2MAM-A3 pre-treatment (Ramos-RR1; [3]): 39.7±2.4%; augmentation of paclitaxel cytotoxicity (Ramos-RR1; [3]): 4.71 folds; apoptosis, paclitaxel after 2MAM-A3 pre-treatment (Ramos wt cells; [4]): 26.7±2.2%; augmentation of paclitaxel cytotoxicity (Ramos wt cells; [4]): 1.96 folds; augmentation of paclitaxel cytotoxicity (Daudi-RR1; Daudi-RR1, 2MAM-A3 35 μg/ml 7 h, paclitaxel 10 nM 18 h): 3.2 folds; augmentation of paclitaxel cytotoxicity (Daudi wt cells; 2MAM-A3 15 μg/ml 7 h, paclitaxel 10 nM 18 h): 1.98 fold
2 | COc1cccc2c1C(=O)c1c(O)c3c(c(O)c1C2=O)C[C@@](O)(C(=O)CO)C[C@@H]3O[C@H]1C[C@H](N)[C@H](O)[C@H](C)O1 [ADR] | – | 2.3 | 158 | 32.4±2.9 | 14.3±3.3 | 1.94 | 149 | 40.5±3.1 | 12.4±2.5 | –
3 | CC(C)(C)c1ccc(S(=O)(=O)/C=C/C#N)cc1 [Bay 11-7085] | sensitized | – | – | – | – | – | – | – | – | sensitization to TRAIL-induced apoptosis [1]: significant augmentation of apoptosis and synergy was achieved
4 | CC(C)C[C@H](NC(=O)[C@H](Cc1ccccc1)NC(=O)c1cnccn1)B(O)O [Bortezomib] | sensitized | – | – | – | – | – | – | – | – | chemosensitization to drug-induced apoptosis (taxol, vincristine, ADR, CDDP, VP16) (2F7RR1 clone): reversal of resistance; also recorded: significantly sensitized; enhanced cytotoxicity of drugs by inhibitor (Ramos-RR1): 1.8-5.1 folds; sensitization to TRAIL-induced apoptosis [1]: significant augmentation of apoptosis and synergy was achieved; enhanced cytotoxicity of drugs by inhibitor (Daudi-RR1): 1.7-3.3 folds; effect on NF-kB, YY1 and Bcl-2 expression [2]: inhibition of NF-kB, YY1 and downregulated Bcl-2 expression
5 | N.N.[Cl][Pt][Cl] [CDDP] | – | 1.41 | 120 | 61.2±2.1 | 19.0±0.7 | 1.95 | 149 | 36.6±0.9 | 25.7±3.1 | –
6 | O=C1Nc2ccc(I)cc2/C1=C/c1cc(Br)c(O)c(Br)c1 [GW 5074] | – | – | – | – | – | – | – | – | – | sensitization to drug-induced apoptosis (Ramos and Daudi): also sensitize the cells
7 | COc1cccc(-c2cc(=O)c3ccccc3o2)c1N [PD098059, [2-(2′-amino-3′-methoxyphenyl)-oxanaphthalen-4-one]] | sensitized | – | – | – | – | – | – | – | – | NF-κB and AP-1 DBA (EMSA) (NF-κB and AP-1 DBA): preferentially reduced; sensitization to drug-induced apoptosis (Ramos and Daudi): also sensitize the cells; enhanced cytotoxicity of drugs by inhibitor (Ramos-RR1): 1.8-3.1 folds; enhanced cytotoxicity of drugs by inhibitor (Daudi-RR1): 1.5-2.7 folds
8 | C[S+]([O-])c1ccc(-c2nc(-c3ccncc3)c(-c3ccc(F)cc3)[nH]2)cc1 (stereo not shown) [SB 203580] | sensitized | – | – | – | – | – | – | – | – | –
9 | N#CC(=C(/N)Sc1ccccc1N)/C(C#N)=C(/N)Sc1ccccc1N [UO126] | – | – | – | – | – | – | – | – | – | sensitization to drug-induced apoptosis (Ramos and Daudi): also sensitize the cells
10 | COc1cc([C@@H]2c3cc4c(cc3[C@@H](O[C@@H]3O[C@@H]5CO[C@@H](C)O[C@H]5[C@H](O)[C@H]3O)[C@H]3COC(=O)[C@H]23)OCO4)cc(OC)c1O [VP-16] | – | 1.8 | 145 | 53.0±2.6 | 10.3±1.1 | 2.97 | 167 | 32.0±2.2 | 11.8±0.9 | –
11 | CC(=O)O[C@H]1C(=O)[C@@]2(C)[C@H]([C@H](OC(=O)c3ccccc3)[C@]3(O)C[C@H](OC(=O)[C@H](O)[C@@H](NC(=O)c4ccccc4)c4ccccc4)C(C)=C1C3(C)C)[C@]1(OC(C)=O)CO[C@@H]1C[C@@H]2O [paclitaxel] | – | 1.54 | 136 | 46.5±2.3 | 20.4±3.0 | 1.63 | 139 | 42.0±1.9 | 14.9±3.2 | apoptosis, paclitaxel alone (Ramos-RR1; Ramos-RR1, paclitaxel 10 nM 18 h): 8.42±2.1%; apoptosis, paclitaxel alone (Ramos wt cells; wt Ramos, paclitaxel 10 nM 18 h): 13.6±1.3%
12 | CC[C@]1(O)C[C@H]2CN(CCc3c([nH]c4ccccc34)[C@@](C(=O)OC)(c3cc4c(cc3OC)N(C=O)[C@H]3[C@@](O)(C(=O)OC)[C@H](OC(C)=O)[C@]5(CC)C=CCN6CC[C@]43[C@@H]65)C2)C1 [vincristine] | – | 1.42 | 130 | 53.5±2.2 | 15.3±1.1 | 1.66 | 140 | 36.6±2.3 | 14.2±1.7 | –
13 | cross-linked rituximab: 50 μg/ml anti-human immunoglobulin (hIg)+20 μg/ml rituximab | – | – | – | – | – | – | – | – | – | higher threshold to cross-linked rituximab-mediated apoptosis vs wt (Ramos-RR1; Ramos-RR1): 2.86 folds; apoptosis (Ramos wt cells; Ramos wt, 50 μg/ml anti-hIg + 20 μg/ml rituximab, 24 h): 29.2±2.4%; higher threshold to cross-linked rituximab-mediated apoptosis vs wt (Daudi-RR1; Daudi-RR1): 2.56 folds; apoptosis (Daudi wt cells; 50 μg/ml anti-hIg + 20 μg/ml rituximab, 24 h): 32.8±2.1%
14 | B1 | – | – | – | – | – | – | – | – | – | sensitivity to TRAIL-mediated apoptosis ([1]; wild type and RR1 cells, TRAIL 1-250 ng/ml, 18 h): resistant
